Test results reported in patent publication US20060134801A1, “Methods and compositions involving MDA-7” (Board of Regents, The University of Texas System, priority 2003, published 2006).

Assays:
A549 cells = assay: Radiation clonogenic survival assay; type: cell-based, human; conditions: A549 and H1299
Protocol: In vitro transfection studies for all cell lines were performed by plating 2×10^5 cells in T25 flasks. Forty-eight hours after plating, cells were incubated for 1 hour with purified vector in 1 ml of medium without serum. After 1 hour, fresh medium supplemented with 10% FBS was added to the flask. Serum-free medium was used for mock transfection.
The effectiveness of treatments was assessed by clonogenic assays. Briefly, monolayers of A549, H1299, CCD-16, and MRC-9 cells were treated in T25 flasks as described above, and after various doses of irradiation the cells were trypsinized and counted. Known numbers of cells were then replated in 100 mm culture dishes and returned to the incubator to allow macroscopic colony development.

HUVEC = assay: Endothelial cell differentiation (tube formation) assay on Matrigel; type: cell-based, human; conditions: for concentration required to significantly inhibit HUVEC tube formation: equimolar comparison; for tube formation in the presence of IL-22R1 antibody: high concentrations, vs PBS
Protocol: Endothelial cell differentiation (tube formation) assays were done using the in vitro angiogenesis assay kit (Chemicon, Temecula, Calif.). Briefly, HUVEC and HMVEC were grown to 80% confluency, collected, resuspended in growth medium, and plated at a concentration of 2−10^4 cells/well in a 96-well plate coated with Matrigel (Chemicon, Temecula, Calif.). Cells were treated with sMDA-7 protein (1, 5, 10, and 50 ng/ml), or a preparation immunodepleted of sMDA protein for 24 h at 37° C. Cells treated with PBS served as negative controls in these experiments. The ability of sMDA-7 to inhibit tube formation was determined and quantitated by counting the number of tubes under bright-field microscopy.
For experiments involving comparative studies, cells were treated with equimolar concentrations of sMDA-7 (5, 10, and 300 ng/ml), recombinant human endostatin (5.2, 10.4, and 315 ng/ml; Calbiochem, La Jolla, Calif.), recombinant IFN-γ (4.5, 9, and 268 ng/ml; R&D systems, Minneapolis, Minn.) or recombinant IP-10 (2.4, 4.5, and 134 ng/ml; R&D systems, Minneapolis, Minn.) and analyzed for tube formation assay as described above. All samples were tested in duplicate. Experiments were repeated at least 5-6 times.
For receptor blocking studies, HUVEC grown in six-well plates were pretreated with IL-22R1 blocking antibody (1 ng/ml and 5 ng/ml). Following overnight incubation, cells were harvested, washed, and plated in Matrigel coated 96-well plates. Fresh IL-22R1 blocking antibody and sMDA-7 was added to the wells in a 1:1 ratio (1 ng/ml of IL-22R1 antibody:1 ng/ml of sMDA-7) or 1:5 ratio (1 ng/ml of IL-22R1 antibody:5 ng/ml of sMDA-7) and incubated at 37° C. After overnight incubation, the plates were examined for tube formation. All other experimental procedures were the same as described above. […] The relative amount of IL-22R1 used for experiments involving endostatin was 315 ng/ml (1:1 ratio) and 134 ng/ml for experiments involving IP-10 (1:1 ratio). All other experimental procedures were the same as described previously. For blocking studies using anti-IP-10 or anti-IFN-γ neutralizing antibodies (R & D Systems), experiments were conducted as described above for receptor studies except that HUVEC were treated with the appropriate neutralizing antibody (1 μg and 5 μg/ml) prior to treatment with sMDA-7 (300 ng/ml).

HUVECs = assay: Clonogenic survival of endothelial cells after irradiation; type: cell-based, human; conditions: MDA-7 protein 10 ng/ml; angiostatin, endostatin 100 ng/ml; 12 h before irradiation
Protocol: Twelve hours after seeding HUVECs in 4-well plates (Nunc, Roskilde, Denmark), medium was replaced with serum/growth factor-free medium. After serum/growth factor starvation for 12 hours, cells were treated with complete medium containing either MDA-7 protein (10 ng/ml) (removed from cultures of 293 cells), angiostatin (100 ng/ml), or endostatin (100 ng/ml). Twelve hours later, cells were irradiated with ^137CS unit (3.4 Gy/min) at room temperature, trypsinized and counted. Known numbers of cells were replated in 60 mm culture dishes and incubated to allow macroscopic colony development. Colonies were counted after 14 days, and the percent plating efficiency and surviving fractions following given treatments were calculated based on the survival of non-irradiated cells.

MDA-7 expression in PBMC = MDA-7 expression in PBMC (real time RT-PCR, intracellular FACS); type: cell-based, human; conditions: 100 U/ml; 6 hr; resting PBMC
Protocol: Cells were isolated at the designated times and protein levels measured and RNA isolated. Real time RT-PCR was performed using TaqMan OneStep procedure according to the manufacturers protocol (Applied Biosystems, Foster City Calif.). Gene specific primer/probes for MDA-7 and HPRT were purchased from Applied Biosystems. The reactions were carried out according to manufacturer's protocol using an ABI Prism 7900 HT sequence detection system and the analysis was conducted using Sequence Detection Software version 2.9. MDA-7 protein was detected by intracellular FACs analysis. Cells were treated with Brefeldin A at 10 μg/ml 4 hr prior to harvest to prohibit secretion of the cytokine. Where applicable cells were first surface stained using directly conjugated antibodies and then, to detect intracellular proteins, cells were fixed by treatment with 4% paraformaldehyde and then permeabilized with detergent, n-octyl glucopyranoside at 7 mg/ml. As the control for permeabilization, cells were also stained with a monoclonal antibody directed against the intracellular protein vimentin. Standard protocols were followed for immunofluorescence staining. Immunofluorescence was analyzed on a FACSCalibur with Cell Quest software (BD Immunosciences).
To determine what cytokines may be driving this expression, PBMC were stimulated with IL-2, a major cytokine produced during PHA activation. […]

IL-22R1 on HUVEC = target: T1, IL-22R1 on HUVEC (human, UniProt Q8N6P7 16-574); assay: cell-based or functional assay
T1 sequence (looked up): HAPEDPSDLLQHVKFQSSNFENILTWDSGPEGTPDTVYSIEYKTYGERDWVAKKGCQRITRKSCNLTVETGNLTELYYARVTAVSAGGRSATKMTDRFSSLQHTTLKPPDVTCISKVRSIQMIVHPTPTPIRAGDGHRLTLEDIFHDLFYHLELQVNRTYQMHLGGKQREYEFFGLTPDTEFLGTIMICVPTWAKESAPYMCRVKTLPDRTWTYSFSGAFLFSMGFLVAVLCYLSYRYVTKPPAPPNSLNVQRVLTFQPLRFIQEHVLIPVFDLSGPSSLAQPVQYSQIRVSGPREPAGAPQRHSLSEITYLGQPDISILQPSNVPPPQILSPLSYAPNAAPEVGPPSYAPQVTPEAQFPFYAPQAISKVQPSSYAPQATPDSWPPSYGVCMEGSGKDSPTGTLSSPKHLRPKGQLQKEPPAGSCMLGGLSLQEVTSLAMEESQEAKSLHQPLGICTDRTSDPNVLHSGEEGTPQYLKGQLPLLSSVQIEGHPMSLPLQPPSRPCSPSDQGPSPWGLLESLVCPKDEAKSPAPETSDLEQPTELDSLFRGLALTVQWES

## COC(=O)Nc1nc2ccc(C(=O)c3cccs3)cc2[nH]1 [Nocodazole]
A549 cells; 200 ng/ml
  radiosensitivity after G2/M arrest: does not enhance the radiosensitivity

## IFN-γ: recombinant IFN-γ (R&D systems)
HUVEC
  concentration required to significantly inhibit HUVEC tube formation: 268 ng/mL

## angiostatin
HUVECs
  radiosensitization of HUVECs: produced radiosensitizing effects

## COc1cc(/C=C/C(=O)CC(=O)/C=C/c2ccc(O)c(OC)c2)ccc1O [curcumin, Curcumin]
A549 cells; 10 μM
  Ad-mda7 radiosensitization: abrogated

## IP-10: recombinant IP-10 (R&D systems)
HUVEC
  concentration required to significantly inhibit HUVEC tube formation: 134 ng/mL
  tube formation in the presence of IL-22R1 antibody: significantly inhibited

## IL-15: cytokine
MDA-7 expression in PBMC
  expression of MDA-7 mRNA and protein: stimulated

## endostatin
HUVECs
  radiosensitization of HUVECs: produced radiosensitizing effects
HUVEC; 315 ng/ml
  inhibition of tube formation over control: 40-50%
HUVEC
  concentration required to significantly inhibit HUVEC tube formation: 300 ng/mL
  tube formation in the presence of IL-22R1 antibody: significantly inhibited

B1: IL-7: cytokine (protein, UniProt P13232 26-177, looked up)
Interleukin-7: DCDIEGKDGKQYESVLMVSIDQLLDSMKEIGSNCLNNEFNFFKRHICDANKEGMFLFRAARKLRQFLKMNSTGDFDLHLLKVSEGTTILLNCTGQVKGRKPAALGEAQPTKSLEENKSLKEQKKLNDLCFLKRLLQEIKTCWNKILMGTKEH
MDA-7 expression in PBMC
  expression of MDA-7 mRNA and protein: stimulated

B2: secreted MDA-7 protein (soluble, glycosylated, produced by stably transfected 293 cells) (ligand)
chain: AQGQEFHFGPCQVKGVVPQKLWEAFWAVKDTMQAQDNITSARLLQQEVLQNVSDAESCYLVHTLLEFYLKTVFKNYHNRTVEVRTLKSFSTLANNFVLIVSQLQPSQENEMFSIRDSAHRRFLLFRRAFKQLDVEAALTKALGEVDILLTWMQKFYKL
modifications: glycosylated (sites not given)
IL-22R1 on HUVEC
  HUVEC tube formation with sMDA-7 (5 ng/ml), restoration by 1 ng/ml IL-22R1 blocking antibody (1:5 ratio): < 60%
  HUVEC tube formation with sMDA-7 (5 ng/ml), restoration by 5 ng/ml IL-22R1 blocking antibody (1:1 ratio): > 90%
